Measured values taken from ChEMBL document CHEMBL1201862, “PubChem BioAssay data set” (2004).
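48-hour exposure; five concentrations; linearly interpolated endpoints. GI50: concentration for 50% inhibition of growth.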 Calls of active or inactive are those of the source. Rule as the data show it: active = GI50 up to about 1.1 µM and inactive = higher.

Legend:
Assay in all cases: NCI-60 cell line screen, 48 h
HT-29 = test system: HT-29
SW-620 = test system: SW-620
SNB-75 = test system: SNB-75
MOLT-4 = test system: MOLT-4
RPMI-8226 = test system: RPMI-8226
OVCAR-5 = test system: OVCAR-5
SK-MEL-28 = test system: SK-MEL-28
SK-MEL-5 = test system: SK-MEL-5
OVCAR-4 = test system: OVCAR-4
M14 = test system: M14
A498 = test system: A498
NCI-H226 = test system: NCI-H226
SF-295 = test system: SF-295
UACC-62 = test system: UACC-62
HOP-92 = test system: HOP-92
SN12C = test system: SN12C
SF-539 = test system: SF-539
COLO 205 = test system: COLO 205
OVCAR-3 = test system: OVCAR-3
A549 = test system: A549

Row | Structure (SMILES) | GI50 (HT-29) | GI50 (SW-620) | GI50 (SNB-75) | GI50 (MOLT-4) | GI50 (RPMI-8226) | GI50 (OVCAR-5) | GI50 (SK-MEL-28) | GI50 (SK-MEL-5) | GI50 (OVCAR-4) | GI50 (M14) | GI50 (A498) | GI50 (NCI-H226) | GI50 (SF-295) | GI50 (UACC-62) | GI50 (HOP-92) | GI50 (SN12C) | GI50 (SF-539) | GI50 (COLO 205) | GI50 (OVCAR-3) | GI50 (A549)
1 | COc1cc(C2c3cc4c(cc3OC(N3CCCCC3)C2C)OCO4)cc(OC)c1OC (stereo not given) | 3.04 µM (inactive) | 3.2 µM (inactive) | 4.47 µM (inactive) | 3.9 µM (inactive) | 4.18 µM (inactive) | 12.7 µM (inactive) | 10.5 µM (inactive) | 2.62 µM (inactive) | 13 µM (inactive) | 2.83 µM (inactive) | 3.38 µM (inactive) | 3.39 µM (inactive) | 1.75 µM (inactive) | 3.53 µM (inactive) | 10.4 µM (inactive) | 6.07 µM (inactive) | 2.2 µM (inactive) | 3.02 µM (inactive) | 1.9 µM (inactive) | 4.04 µM (inactive)
2 | c1ccc2c(c1)SC1Sc3ccccc3[S+]21 (stereo not given) | 27.2 µM (inactive) | 25.2 µM (inactive) | 38.4 µM (inactive) | 13.4 µM (inactive) | 12.9 µM (inactive) | 27 µM (inactive) | 16.1 µM (inactive) | 7.28 µM (inactive) | 41.3 µM (inactive) | 21.5 µM (inactive) | 33.3 µM (inactive) | 19.9 µM (inactive) | 53.2 µM (inactive) | 17.2 µM (inactive) | 10.4 µM (inactive) | 5.96 µM (inactive) | 23.2 µM (inactive) | 11.1 µM (inactive) | 19.5 µM (inactive) | 27.4 µM (inactive)
3 | CCOC(=O)c1c2ccccc2n2c(=O)n(-c3ccccc3)nnc12 | – | > 100 µM (inactive) | 27.2 µM (inactive) | – | 15.3 µM (inactive) | > 100 µM (inactive) | > 100 µM (inactive) | 15.7 µM (inactive) | > 71.8 µM (inactive) | 59 µM (inactive) | > 21.2 µM (inactive) | > 40.2 µM (inactive) | 3.25 µM (inactive) | 10.4 µM (inactive) | > 100 µM (inactive) | > 100 µM (inactive) | > 96.4 µM (inactive) | 40.7 µM (inactive) | 17.3 µM (inactive) | 63.4 µM (inactive)
4 | COC(=O)C1OC(Oc2cc(O)c3c(=O)cc(-c4ccc(O)cc4)oc3c2)C(O)C(O)C1O (stereo not given) | > 100 µM (inactive) | > 100 µM (inactive) | > 100 µM (inactive) | > 100 µM (inactive) | > 100 µM (inactive) | > 100 µM (inactive) | > 100 µM (inactive) | > 100 µM (inactive) | > 100 µM (inactive) | – | > 100 µM (inactive) | > 100 µM (inactive) | > 100 µM (inactive) | > 100 µM (inactive) | > 100 µM (inactive) | > 100 µM (inactive) | > 100 µM (inactive) | > 100 µM (inactive) | > 100 µM (inactive) | > 100 µM (inactive)
5 | O=C(O)C(C(=O)O)P(=S)(S)c1ccccc1 (stereo not given) | > 100 µM (inactive) | > 100 µM (inactive) | > 100 µM (inactive) | > 30.4 µM (inactive) | > 100 µM (inactive) | > 100 µM (inactive) | > 100 µM (inactive) | > 31.6 µM (inactive) | > 100 µM (inactive) | > 100 µM (inactive) | > 100 µM (inactive) | > 100 µM (inactive) | > 100 µM (inactive) | > 100 µM (inactive) | > 100 µM (inactive) | > 100 µM (inactive) | > 100 µM (inactive) | > 100 µM (inactive) | > 100 µM (inactive) | > 100 µM (inactive)
6 | CCCCC1=C(Br)C(=C(Br)Br)OC1=O | 3.08 µM (inactive) | 3.34 µM (inactive) | 5.64 µM (inactive) | 1.83 µM (inactive) | 0.379 µM (active) | 16.5 µM (inactive) | 2.78 µM (inactive) | 3.71 µM (inactive) | 1.79 µM (inactive) | – | 15.2 µM (inactive) | 4 µM (inactive) | 10.6 µM (inactive) | 2.42 µM (inactive) | 11 µM (inactive) | 2.75 µM (inactive) | 3.26 µM (inactive) | 3.01 µM (inactive) | 2.55 µM (inactive) | 17.1 µM (inactive)
7 | Cn1ccc(C(=O)NCCN(CCNC(=O)c2ccn(C)c(=O)c2O)CCNC(=O)c2ccn(C)c(=O)c2O)c(O)c1=O | > 100 µM (inactive) | > 100 µM (inactive) | > 100 µM (inactive) | – | > 100 µM (inactive) | 29.9 µM (inactive) | > 100 µM (inactive) | > 100 µM (inactive) | > 100 µM (inactive) | > 100 µM (inactive) | > 100 µM (inactive) | > 100 µM (inactive) | > 100 µM (inactive) | > 100 µM (inactive) | > 100 µM (inactive) | > 100 µM (inactive) | > 100 µM (inactive) | > 100 µM (inactive) | > 100 µM (inactive) | > 100 µM (inactive)
